According to paper PMC4917822, “pH-Selective Cytotoxicity of pHLIP-Antimicrobial Peptide Conjugates” (Scientific Reports, 2016):
Bridges are numbered along the chain shown (N, C = ends). Roman numbers before positions name the chains, in order. Where no end group is shown, it is not given here.

Assays:
[1] = test system: MDA-MB-231 breast cancer cells; assay: Anti-proliferation assay (MTT) after 2 h treatment at pH 7.4 or 5.0; assay type: cell-based, Human; settings: for enhancement of cytotoxicity of free peptide at low pH: pH 5.0, 10 μM; for enhancement of cytotoxicity of free peptide at low pH / cytotoxicity of free peptide at physiological pH: n = 9; for cytotoxicity of free peptide at physiological pH: pH 7.4, 72 h recovery
Description: We have previously shown that this treatment protocol and pHLIP alone have no effect on MDA-MB-231 cell viability.
Figure 2 Inhibition of cell growth. MDA-MB-231 cells treated with 4-amino acid pHLIP-KLAKS conjugates. Black columns represent cells treated at pH 7.4 and cells treated at low pH are shown in grey. For each condition, 3,000 cells/well (96-well plate) were seeded, allowed to adhere overnight, treated for 2 hours, washed once with media and cultured for 72 hour in complete medium at physiologic pH. Cell viability was assessed with the MTT assay. All measurements were normalized to the media control (0 μM, pH 7.4), as 100% cell viability. Results are shown as mean ± SEM (n = 9–12).
For each condition, 3,000 cells/well (96-well plate) were seeded, allowed to adhere overnight, treated for 2 hours, washed once with media and cultured for 72 hour in complete medium at physiologic pH. Cell viability was assessed with the MTT assay. All measurements were normalized to the media control (0 μM, pH 7.4), as 100% cell viability. Results are shown as mean ± SEM (n = 9–12). Data at pH 5.0 (A and B) were fitted with a sigmoidal dose-response using Prism 6 for Macintosh (GraphPad, Inc).
Figure 5 Effect of free peptides on cell viability. MDA-MB-231 cells were treated with 10 μM of either (KLAKLAK)2 (A) or KLAKLAK (B) at pH 7.4 (black circles) or pH 5.0 (grey squares) for 2 hours, washed once with media and cultured for 72 hours in complete medium at physiologic pH. Cell viability was assessed with the MTT assay, and all measurements were normalized to the media control (0 μM, pH 7.4), as 100% cell viability. Results are shown as mean ± SEM (n = 9).
Cells were seeded in 96-well plates at a density of 3,000 cells/well and incubated overnight. […] Treatment solutions were collected and their pH values measured using a micro-combination pH probe (Microelectrodes, Inc.). […] Cell viability was determined after 72 hours using the colorimetric MTT assay. Briefly, 10 μL of a 5 mg/mL MTT stock solution was added to the treated cells and incubated for 2 hours at 37 °C. The resulting formazan crystals were solubilized in 200 μL DMSO and the absorbance measured at 580 nm using an Infinite 200 PRO microplate reader (Tecan). Cell viability was calculated against control cells treated with media at physiologic pH. When needed, data were fitted with a sigmoidal dose-response using Prism 5 for Macintosh (GraphPad, Inc). […]
Figure S1. Effect of Free Peptides on Cell Viability and Plasma Membrane Integrity. For each condition, 3,000 cells/well (96-well plate) were seeded, incubated until confluent (~72 hours) and treated for 2 hours with 10 µM of free pHLIP(WT) or free tetrapeptides at pH 7.4 (black bars) and a low pH (grey bars). (A) Cell viability assay. After the 2-hour treatment, cells were washed once with media and cultured for 72 hour in complete medium at physiologic pH. Cell viability was assessed with the MTT assay. All measurements were normalized to the media control (0 µM, pH 7.4), as 100% cell viability. Results are shown as mean ± SEM (n=9-12). (B) After the 2-hour treatment, cells were detached and counted based on trypan blue uptake with an hemacytometer: % of intact cells corresponds to the number of cells not showing any dye uptake over the total number of cells. Results are shown as mean ± SD (n=3).

[2] = test system: MDA-MB-231 cells; assay: Trypan Blue plasma membrane integrity assay; assay type: cell-based, Human; settings: 10 μM, 2 h at pH 7.4 or pH 5.0, % intact cells counted with hemacytometer, mean ± SD, n = 3
Source text: (§1) First, we assessed the effect of the conjugates on the integrity of cell membranes based on the uptake of Trypan Blue, which can be taken up by cells only if their plasma membrane is disrupted. […] We also measured the release of the intracellular enzyme lactate dehydrogenase (LDH) after peptide treatment, as another method to evaluate plasma membrane damage. […] Importantly, it was previously shown that neither pHLIP alone nor low pH treatments disrupts membranes, including that of MDA-MB-231 cells[20][23] (Figure S1).
(§2) Figure 4 Effect of free peptides and pHLIP-conjugates on Plasma Membrane Integrity and Lactate Dehydrogenase (LDH) Release. (A) The integrity of the plasma membrane is assessed by the uptake of trypan blue dye. […] Cells were detached and counted based on trypan blue uptake with an hemacytometer: % of intact cells corresponds to the number of cells not showing any dye uptake over the total number of cells. […] Cell media supernatant was monitored for the presence of LDH following treatment. […]
For the Trypan Blue plasma membrane integrity assays cells were seeded in 96-well plates at a density of 3,000 cells/well and incubated until confluent (~72 hours). […] After treatment, the media was removed, cells were detached using trypsin and counted based on trypan blue uptake using an hemacytometer. […] Percent LDH release was calculated against control cells treated with media at physiologic pH. […]

[3] = test system: MDA-MB-231 breast cancer cells; settings: cited from earlier work
[4] = test system: MDA-MB-231 cells; assay: Lactate dehydrogenase (LDH) release assay; assay type: cell-based, Human; settings: 10 μM free peptide, 2 h at pH 5.0
Source text: as §1, §2
For the Trypan Blue plasma membrane integrity assays cells were seeded in 96-well plates at a density of 3,000 cells/well and incubated until confluent (~72 hours). […] After treatment, the media was removed, cells were detached using trypsin and counted based on trypan blue uptake using an hemacytometer. […] Percent LDH release was calculated against control cells treated with media at physiologic pH.

[5] = test system: MDA-MB-231 cells; assay: Annexin V-Alexa Fluor 488 / MitoTracker Red dual staining by flow cytometry; assay type: cell-based, Human; settings: for PS externalization (Annexin V) and loss of mitochondrial membrane potential (MitoTracker Red) at low pH / Annexin V / MitoTracker Red effects 6 hours post-treatment: 10 μM; for PS externalization (Annexin V) and loss of mitochondrial membrane potential (MitoTracker Red) at low pH: 2 h at pH 5.0, 24 h recovery, n = 3; for Annexin V / MitoTracker Red effects 6 hours post-treatment: 2 h at pH 7.4 or 5.0, 6 h recovery, n = 3 (Figure S3)
[6] = test system: caspases 3 and 7; settings: MDA-MB-231; 10 μM; 2 h at pH 7.4 or 5.0; monitored at 24, 48 and 72 hours; fluorescence 485/530 nm; n = 3 (Figure S5)
Description: Before treatment, construct aliquots were solubilized in an appropriate volume of DMEM without FBS (pH 7.4) so that upon pH adjustment 10 μM is obtained. […]

Compound | enhancement of cytotoxicity of free peptide at low pH ([1]; 72 h recovery) | cytotoxicity of free peptide at physiological pH [1] | LDH release 24 hours post-treatment at low pH [4] | PS externalization (Annexin V) and loss of mitochondrial membrane potential (MitoTracker Red) at low pH [5] | Annexin V / MitoTracker Red effects 6 hours post-treatment [5] | also measured
GGEQNPIYWARYADWLFTTPLLLLDLALLVDADEGTCG (H-GGEQNPIYWARYADWLFTTPLLLLDLALLVDADEGTCG-NH2) [pHLIP(WT)] |  |  |  |  |  | effect of free peptide on cell viability (Figure S1A) ([1]; 10 μM free peptide, pH 7.4 and low pH, 72 h recovery, n = 9-12): neither pHLIP(WT) nor the tetrapeptides has any significant harmful effects; plasma membrane integrity (trypan blue uptake) [2]: neither pHLIP(WT) nor the tetrapeptides has any significant harmful effects; effect of pHLIP alone on MDA-MB-231 cell viability [3]: no effect
I: GGEQNPIYWARYADWLFTTPLLLLDLALLVDADEGTCG-NH2 / II: CKAAK-NH2 (disulfide I:37-II:1) [pHLIP-KAAK] |  |  |  |  |  | overall cell proliferation inhibition relative to the other 4-amino acid conjugates ([1]; low pH, 1.25–10 μM, 72 h recovery): lower than pHLIP-KGGK
CKLAKLAK | only a modest one | not significantly toxic | some LDH release | only a modest one | no evidence of these effects | caspase 3/7 activation [6]: neither treatments with pHLIP-KLAKLAK or KLAKLAK induces any significant caspase activation
CN[C@@H]1C[C@H]2O[C@@](C)([C@@H]1OC)n1c3ccccc3c3c4c(c5c6ccccc6n2c5c31)C(=O)NC4 [staurosporine, reference compound] |  |  |  |  |  | Annexin V / MitoTracker Red population shift (positive control) ([5]; 1 μM for 6 or 24 hours, n = 3 (Figure S4)): clear shift in cell population
CKLAKLAKKLAKLAK [(KLAKLAK)2, cationic antimicrobial peptide cargo, synthesized with N-terminal Cys, amidated C-terminus] | greatest enhancement | not significantly toxic | some LDH release | largest effect | no evidence of these effects | 
